For experiment [1], the target named is T1, biotinylated wild-type menin and MLL-AF9 fusion protein (menin/MLL binding) (Homo sapiens, UniProt O00255).
T1 construct: made in house; host or cells: menin: E. coli; MLL-AF9-FLAG: HEK293 cells, used as cleared lysate
T1 sequence (O00255 1-610): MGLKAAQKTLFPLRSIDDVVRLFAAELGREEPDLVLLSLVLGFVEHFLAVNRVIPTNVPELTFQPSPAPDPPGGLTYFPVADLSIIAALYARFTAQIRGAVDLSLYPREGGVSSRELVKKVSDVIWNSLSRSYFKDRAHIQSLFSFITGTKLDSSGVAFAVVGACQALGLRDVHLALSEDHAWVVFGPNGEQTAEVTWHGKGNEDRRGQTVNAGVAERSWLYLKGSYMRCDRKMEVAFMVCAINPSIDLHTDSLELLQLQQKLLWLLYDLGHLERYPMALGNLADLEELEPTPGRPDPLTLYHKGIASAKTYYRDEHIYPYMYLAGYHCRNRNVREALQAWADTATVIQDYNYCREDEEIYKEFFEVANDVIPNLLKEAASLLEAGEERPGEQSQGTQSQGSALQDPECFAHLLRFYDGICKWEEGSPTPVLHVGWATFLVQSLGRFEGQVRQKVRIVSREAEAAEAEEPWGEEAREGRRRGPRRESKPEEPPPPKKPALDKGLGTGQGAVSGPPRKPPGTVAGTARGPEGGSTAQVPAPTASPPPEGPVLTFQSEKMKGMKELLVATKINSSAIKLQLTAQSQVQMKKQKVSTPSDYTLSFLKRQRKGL
The experiment is described as follows: Assay 1: menin/MLL binding AlphaLISA assay, wild-type menin. The conditions noted are these: Table 30; column head does not say wild-type or mutated menin. The procedure, abridged:
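Compound was preincubated 30 min at room temperature with biotinylated menin (5 nM) and MLL-AF9-FLAG lysate from HEK293 cells, pH 7.4 buffer with 5% DMSO and DTT. Bead-based Alpha signal after 60 min with streptavidin donor and anti-FLAG acceptor beads; four-parameter logistic fit gave IC50.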
(In general: Alpha assays give light when donor and acceptor beads are brought close together.)

Experiment [2] deals with human acute monocytic leukemia cell line MV-4-11. The experiment is described as follows: Assay 2: cell proliferation assay (ATP quantitation, CellTiter-Glo), MV-4-11. It is filed as cell-based. The conditions noted are these: Homo sapiens, MV4-11, 72 h, MV-4-11 cells. The procedure, abridged:
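Read-out is CellTiter-Glo luminescence quantifying ATP. Compound exposure lasted 72 h at 37° C., 5% CO2, with 1.67×10^4 MV-4-11 cells per well in 10% FBS medium, alongside HL-60 toxicity-control cells.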
For orientation: In ATP-based viability assays light output follows the ATP content of the culture.

The term IC50 denotes the concentration that gives 50% inhibition. Higher therefore signals lower potency. For orientation: EC50 means the midpoint of the concentration-response curve. The low end stands for higher potency in that assay, the high end for lower potency in that assay. In experiment [1], `CC(C)N(C(=O)c1cc(F)ccc1Oc1cncnc1N1CC2(CCN(CC(C)(C)O)CC2)C1)C(C)C` [Example 89, 5-fluoro-2-((4-(7-(2-hydroxy-2-methylpropyl)-2,7-diazaspiro[3.5]nonan-2-yl)pyrimidin-5-yl)oxy)-N,N-diisopropylbenzamide] yielded a half-inhibitory concentration (IC50) below 0.1 µM. This compound also gave an EC50 in experiment [2] of 0.1 to 1 µM.

`CC(C)N(C(=O)c1cc(F)ccc1Oc1cncnc1N1CCC2(CCN(Cc3ccc4c(c3)NC(=O)C4(C)C#N)C2)C1)C(C)C` (stereo not drawn) [Example 90, 2-((4-(7-((3-cyano-3-methyl-2-oxoindolin-6-yl)methyl)-2,7-diazaspiro[4.4]nonan-2-yl)pyrimidin-5-yl)oxy)-5-fluoro-N,N-diisopropylbenzamide] showed an IC50 in experiment [1] below 0.1 µM. This compound returned a concentration for a half-maximal effect (EC50) in experiment [2] below 0.1 µM.

In experiment [1], `CCN(C(=O)OC)c1cc(F)ccc1Oc1cncnc1N1CCC2(CCN(Cc3ccc4[nH]c(=O)[nH]c4c3)C2)C1` (stereo not drawn) [Example 91, methyl ethyl(5-fluoro-2-((4-(7-((2-oxo-2,3-dihydro-1H-benzo[d]imidazol-5-yl)methyl)-2,7-diazaspiro [4.4]nonan-2-yl)pyrimidin-5-yl)oxy)phenyl) carbamate] showed a half-inhibitory concentration (IC50) below 0.1 µM. In experiment [2], the concentration for a half-maximal effect (EC50) is below 0.1 µM.

In turn, `CC(C)N(C)C(=O)c1cc(F)ccc1Oc1cncnc1N1CC2(CC(NC3CCOCC3)C2)C1` [Example 92, 5-fluoro-N-isopropyl-N-methyl-2-((4-(6-((tetrahydro-2H-pyran-4-yl)amino)-2-azaspiro[3.3]heptan-2-yl)pyrimidin-5-yl)oxy)benzamide] displayed a concentration for half-maximal inhibition (IC50) in experiment [1] below 0.1 µM. The concentration giving a half-maximal response (EC50) in experiment [2] lay in the range of 0.1 to 1 µM.

In experiment [1], `CC(C)N(C)C(=O)c1cc(F)ccc1Oc1cncnc1N1CC2(CCN(C[C@H]3CC[C@H](NS(C)(=O)=O)CC3)CC2)C1` [Example 93, 5-fluoro-N-isopropyl-N-methyl-2-((4-(7-(((1r,4r)-4-(methylsulfonamido)cyclohexyl)methyl)-2,7-diazaspiro [3.5]nonan-2-yl)pyrimidin-5-yl)oxy)benzamide] returned a concentration for half-maximal inhibition (IC50) below 0.1 µM. The concentration for a half-maximal effect (EC50) in experiment [2] lay in the range of 0.1 to 1 µM.

Turning to `CC(C)N(C)C(=O)c1cc(F)ccc1Oc1cncnc1N1CC2(CCN(C[C@H]3CC[C@H](NC(=O)OC(C)(C)C)CC3)CC2)C1` [Example 94, tert-butyl ((1r,4r)-4-((2-(5-(4-fluoro-2-(isopropyl(methyl)carbamoyl)phenoxy)pyrimidin-4-yl)-2,7-diazaspiro[3.5]nonan-7-yl)methyl)cyclohexyl) carbamate], in experiment [1], the IC50 is below 0.1 µM. Also, the half-maximal effective concentration (EC50) in experiment [2] is 0.1 to 1 µM.

Compound `COC(=O)N[C@H]1CC[C@H](CN2CCC3(CC2)CN(c2ncncc2Oc2ccc(F)cc2C(=O)N(C)C(C)C)C3)CC1` [Example 95, methyl ((1r,4r)-4-((2-(5-(4-fluoro-2-(isopropyl(methyl)carbamoyl)phenoxy)pyrimidin-4-yl)-2,7-diazaspiro[3.5]nonan-7-yl)methyl)cyclohexyl) carbamate] returned an IC50 in experiment [1] below 0.1 µM. In experiment [2], this compound registered an EC50 of 0.1 to 1 µM.

In turn, `CC(C)c1ncncc1-c1cc(F)ccc1Oc1cncnc1N1CC2(CCC(NC(C)(C)C)C2)C1` (stereo not drawn) [Example 96, N-(tert-butyl)-2-(5-(4-fluoro-2-(4-isopropylpyrimidin-5-yl)phenoxy)pyrimidin-4-yl)-2-azaspiro[3.4]octan-6-amine] gave a concentration for half-maximal inhibition (IC50) in experiment [1] below 0.1 µM. Also, the 50% effective concentration (EC50) in experiment [2] lay within 0.1 to 1 µM.

Turning to `CC(C)N(C(=O)c1cc(F)ccc1Oc1cncnc1N1CC2(CCN(CC3CCC(O)CC3)CC2)C1)C(C)C` (stereo not drawn) [Example 98, 5-fluoro-2-((4-(7-((4-hydroxycyclohexyl)methyl)-2,7-diazaspiro[3.5]nonan-2-yl)pyrimidin-5-yl)oxy)-N,N-diisopropylbenzamide], the IC50 in experiment [1] was below 0.1 µM. This compound also registered an EC50 in experiment [2] of 0.1 to 1 µM.

The compound `CC(C)N(C(=O)c1cc(F)ccc1Oc1cncnc1N1CC2(CCN(CC3CCC(O)CC3)C2)C1)C(C)C` (stereo not drawn) [Example 99, 5-fluoro-2-((4-(6-((4-hydroxycyclohexyl)methyl)-2,6-diazaspiro[3.4]octan-2-yl)pyrimidin-5-yl)oxy)-N,N-diisopropylbenzamide] came in with an IC50 in experiment [1] below 0.1 µM. In addition, in experiment [2], the EC50 is 0.1 to 1 µM.

Regarding `CC(C)N(C(=O)c1cc(F)ccc1Oc1cncnc1N1CC2(CCN(C[C@H]3CC[C@H](NC(=O)OC(C)(C)C)CC3)CC2)C1)C(C)C` [Example 99A, tert-butyl ((1r,4r)-4-((2-(5-(2-(diisopropylcarbamoyl)-4-fluorophenoxy)pyrimidin-4-yl)-2,7-diazaspiro[3.5]nonan-7-yl)methyl)cyclohexyl)carbamate], the IC50 in experiment [1] is below 0.1 µM. Further, the concentration for a half-maximal effect (EC50) in experiment [2] is below 0.1 µM.

`CC(C)N(C(=O)c1cc(F)ccc1Oc1cncnc1N1CC2(CCN(CC3CCC4(CC3)OCCO4)CC2)C1)C(C)C` [Example 100, 2-((4-(7-((1,4-dioxaspiro[4.5]decan-8-yl)methyl)-2,7-diazaspiro[3.5]nonan-2-yl)pyrimidin-5-yl)oxy)-5-fluoro-N,N-diisopropylbenzamide] yielded a half-inhibitory concentration (IC50) in experiment [1] below 0.1 µM. The same compound came in with an EC50 in experiment [2] of 0.1 to 1 µM.

Consider `CC(C)N(C(=O)c1cc(F)ccc1Oc1cncnc1N1CC2(CCN(CC3CCOCC3)CC2)C1)C(C)C` [Example 101, 5-fluoro-N,N-diisopropyl-2-((4-(7-((tetrahydro-2H-pyran-4-yl)methyl)-2,7-diazaspiro[3.5]nonan-2-yl)pyrimidin-5-yl)oxy)benzamide], for which the half-maximal inhibitory concentration (IC50) in experiment [1] is below 0.1 µM. Moreover, the EC50 in experiment [2] was in the range of 0.1 to 1 µM.

Turning to `CC(C)N(C(=O)c1cc(F)ccc1Oc1cncnc1N1CC2(CCN(CC(C)(C)C)C2)C1)C(C)C` [Example 102, 5-fluoro-N,N-diisopropyl-2-((4-(6-neopentyl-2,6-diazaspiro[3.4]octan-2-yl)pyrimidin-5-yl)oxy)benzamide], the IC50 in experiment [1] is below 0.1 µM. In experiment [2], this compound had an EC50 below 0.1 µM.

Compound `CC(C)N(C(=O)c1cc(F)ccc1Oc1cncnc1N1CC2(CCN(CC3CC3)C2)C1)C(C)C` [Example 103, 2-((4-(6-(cyclopropylmethyl)-2,6-diazaspiro [3.4]octan-2-yl)pyrimidin-5-yl)oxy)-5-fluoro-N,N-diisopropylbenzamide] showed a concentration for half-maximal inhibition (IC50) in experiment [1] below 0.1 µM. The same compound had an EC50 in experiment [2] of 0.1 to 1 µM.

`CC(C)N(C(=O)c1cc(F)ccc1Oc1cncnc1N1CC2(CCN(C3CCc4cc(C#N)ccc4C3)C2)C1)C(C)C` (stereo not drawn) [Example 104, 2-((4-(6-(6-cyano-1,2,3,4-tetrahydro-naphthalen-2-yl)-2,6-diazaspiro[3.4]octan-2-yl)pyrimidin-5-yl)oxy)-5-fluoro-N,N-diisopropyl-benzamide] showed a concentration for half-maximal inhibition (IC50) in experiment [1] below 0.1 µM. The concentration for a half-maximal effect (EC50) in experiment [2] is below 0.1 µM.

As to `CC(C)N(C(=O)c1cc(F)ccc1Oc1cncnc1N1CC2(CN(CC[C@H]3CC[C@H](NC(=O)C(C)(C)C)CC3)C2)C1)C(C)C` [Example 105, 5-fluoro-N,N-diisopropyl-2-((4-(6-(2-((1r,4r)-4-pivalamidocyclo-hexyl)ethyl)-2,6-diazaspiro[3.3]heptan-2-yl)pyrimidin-5-yl)oxy)benzamide], the IC50 in experiment [1] is below 0.1 µM. In experiment [2], the EC50 was below 0.1 µM.

For `CCN(C(=O)C(C)C)c1cc(F)ccc1Oc1cncnc1N1CC2(CN(CC3CCCCC3)C2)C1` [Example 106, N-(2-((4-(6-(cyclohexylmethyl)-2,6-diazaspiro[3.3]heptan-2-yl)pyrimidin-5-yl)oxy)-5-fluoro-phenyl)-N-ethylisobutyramide], the half-inhibitory concentration (IC50) in experiment [1] is below 0.1 µM. In addition, the EC50 in experiment [2] is below 0.1 µM.

The values above are taken from patent US12312359B2 (Vitae Pharmaceuticals, LLC, priority 2016, dated 2025).
